Data: ChEMBL document CHEMBL3137667, “[Drug-induced liver injury; fourteenth updated edition of the bibliographic database of liver injuries and related drugs]” (Gastroenterol Clin Biol, 2004)

Legend:
[1] = human
[2] = human, serum
[3] = human; remark: listed apart in the source
[4] = human; remark: listed apart in the source
[5] = Highest frequency of moderate liver toxicity observed during clinical trials, expressed as a percentage. [column '% BIOL' in source]; settings: human
[6] = human, serum; remark: listed apart in the source
[7] = human; remark: listed apart in the source
[8] = human; remark: listed apart in the source
[9] = Highest frequency of acute liver toxicity observed during clinical trials, expressed as a percentage. [column '% AIGUE' in source]; settings: human
[10] = human; remark: listed apart in the source
[11] = human; remark: listed apart in the source
[12] = human; remark: listed apart in the source
[13] = human, serum, 4383 h
[14] = human; remark: listed apart in the source
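For Hepatotoxicity (association with vascular disease) in this document: count of indexed literature references reporting vascular liver injury in humans, e.g. peliosis hepatitis, hepatic veno-occlusive disease or Budd-Chiari syndrome.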
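For Hepatotoxicity (benign tumour) in this document: value is a count of indexed literature references citing a benign tumour confirmed by histopathology.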
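For Hepatotoxicity (choleostasis) in this document: human cholestatic liver injury, shown by histopathology or by peak ALT or AST elevation over alkaline phosphatase ratio below 2, value counts indexed literature reports.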
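For Hepatotoxicity (chronic liver disease) in this document: chronic liver injury confirmed by histopathology or persistently raised serum aminotransferase activity beyond 6 months, value given as the count of indexed literature references.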
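For Hepatotoxicity (cirrhosis) in this document: value is a count of indexed literature references reporting cirrhosis confirmed by histopathology.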
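For Hepatotoxicity (cytolytic) in this document: human cytolytic liver injury, shown by histopathology or by a ratio above 5 of peak ALT or AST elevation to alkaline phosphatase elevation, value counts indexed references.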
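For Hepatotoxicity (granulomatous hepatitis) in this document: value is a count of indexed literature references reporting granulomatous liver disease confirmed by histopathology.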
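For Hepatotoxicity (malignant tumour) in this document: malignant tumour confirmed by histopathology, value gives the count of indexed literature references reporting it.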
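For Hepatotoxicity (severe hepatitis) in this document: human clinical data: severe hepatitis, meaning potentially life-threatening liver failure or clinically observed cases, the value counts how many indexed literature references report it.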
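For Hepatotoxicity (steatosis) in this document: steatosis confirmed by histopathology, value is the count of indexed references.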

CO[C@@]1(NC(=O)C(C(=O)[O-])c2ccc(O)cc2)C(=O)N2C(C(=O)[O-])=C(CSc3nnnn3C)CO[C@@H]21.[Na+].[Na+] (stereo partly drawn) [MOXALACTAM DISODIUM]
Hepatotoxicity (steatosis) [1]: 0 | Hepatotoxicity (moderate) [2]: 13 | Hepatotoxicity (cirrhosis) [3]: 0 | Hepatotoxicity (cytolytic) [4]: 0 | Hepatotoxicity (moderate) [5]: 36.5% | Hepatotoxicity (acute) [6]: 1 | Hepatotoxicity (choleostasis) [7]: 1 | Hepatotoxicity (benign tumour) [8]: 0 | Hepatotoxicity (acute) [9]: 3.3% | Hepatotoxicity (malignant tumour) [10]: 0 | Hepatotoxicity (severe hepatitis) [11]: 0 | Hepatotoxicity (granulomatous hepatitis) [12]: 0 | Hepatotoxicity (chronic liver disease) [13]: 0 | Hepatotoxicity (association with vascular disease) [14]: 0

COc1ccc2cc(CCC(C)=O)ccc2c1 [NABUMETONE]
Hepatotoxicity (steatosis) [1]: 0 | Hepatotoxicity (moderate) [2]: 8 | Hepatotoxicity (cirrhosis) [3]: 0 | Hepatotoxicity (cytolytic) [4]: 1 | Hepatotoxicity (moderate) [5]: 4.5% | Hepatotoxicity (acute) [6]: 1 | Hepatotoxicity (choleostasis) [7]: 0 | Hepatotoxicity (benign tumour) [8]: 0 | Hepatotoxicity (acute) [9]: 0% | Hepatotoxicity (malignant tumour) [10]: 0 | Hepatotoxicity (severe hepatitis) [11]: 0 | Hepatotoxicity (granulomatous hepatitis) [12]: 0 | Hepatotoxicity (chronic liver disease) [13]: 0 | Hepatotoxicity (association with vascular disease) [14]: 0

C/N=C(/Cc1ccc2ccccc2c1)NC [NAPACTADINE]
Hepatotoxicity (steatosis) [1]: 0 | Hepatotoxicity (moderate) [2]: 1 | Hepatotoxicity (cirrhosis) [3]: 0 | Hepatotoxicity (cytolytic) [4]: 0 | Hepatotoxicity (moderate) [5]: 0% | Hepatotoxicity (acute) [6]: 0 | Hepatotoxicity (choleostasis) [7]: 0 | Hepatotoxicity (benign tumour) [8]: 0 | Hepatotoxicity (acute) [9]: 0% | Hepatotoxicity (malignant tumour) [10]: 0 | Hepatotoxicity (severe hepatitis) [11]: 0 | Hepatotoxicity (granulomatous hepatitis) [12]: 0 | Hepatotoxicity (chronic liver disease) [13]: 0 | Hepatotoxicity (association with vascular disease) [14]: 0

CCCN1CCO[C@@H]2c3cc(O)ccc3CC[C@H]21 [NAXAGOLIDE]
Hepatotoxicity (steatosis) [1]: 0 | Hepatotoxicity (moderate) [2]: 1 | Hepatotoxicity (cirrhosis) [3]: 0 | Hepatotoxicity (cytolytic) [4]: 0 | Hepatotoxicity (moderate) [5]: 11.1% | Hepatotoxicity (acute) [6]: 0 | Hepatotoxicity (choleostasis) [7]: 0 | Hepatotoxicity (benign tumour) [8]: 0 | Hepatotoxicity (acute) [9]: 0% | Hepatotoxicity (malignant tumour) [10]: 0 | Hepatotoxicity (severe hepatitis) [11]: 0 | Hepatotoxicity (granulomatous hepatitis) [12]: 0 | Hepatotoxicity (chronic liver disease) [13]: 0 | Hepatotoxicity (association with vascular disease) [14]: 0

NCC1CC(=O)N(Cc2ccccc2)C1 (stereo not drawn) [NEBRACETAM]
Hepatotoxicity (steatosis) [1]: 0 | Hepatotoxicity (moderate) [2]: 1 | Hepatotoxicity (cirrhosis) [3]: 0 | Hepatotoxicity (cytolytic) [4]: 0 | Hepatotoxicity (moderate) [5]: 11.1% | Hepatotoxicity (acute) [6]: 0 | Hepatotoxicity (choleostasis) [7]: 0 | Hepatotoxicity (benign tumour) [8]: 0 | Hepatotoxicity (acute) [9]: 0% | Hepatotoxicity (malignant tumour) [10]: 0 | Hepatotoxicity (severe hepatitis) [11]: 0 | Hepatotoxicity (granulomatous hepatitis) [12]: 0 | Hepatotoxicity (chronic liver disease) [13]: 0 | Hepatotoxicity (association with vascular disease) [14]: 0

CCCc1c2oc(C(=O)O)cc(=O)c2cc2c(=O)cc(C(=O)O)n(CC)c12 [NEDOCROMIL]
Hepatotoxicity (steatosis) [1]: 0 | Hepatotoxicity (moderate) [2]: 2 | Hepatotoxicity (cirrhosis) [3]: 0 | Hepatotoxicity (cytolytic) [4]: 0 | Hepatotoxicity (moderate) [5]: 3.3% | Hepatotoxicity (acute) [6]: 0 | Hepatotoxicity (choleostasis) [7]: 0 | Hepatotoxicity (benign tumour) [8]: 0 | Hepatotoxicity (acute) [9]: 0% | Hepatotoxicity (malignant tumour) [10]: 0 | Hepatotoxicity (severe hepatitis) [11]: 0 | Hepatotoxicity (granulomatous hepatitis) [12]: 0 | Hepatotoxicity (chronic liver disease) [13]: 0 | Hepatotoxicity (association with vascular disease) [14]: 0

CCN[C@@H]1C[C@H](N)[C@@H](O[C@H]2OC(CN)=CC[C@H]2N)[C@H](O)[C@H]1O[C@H]1OC[C@](C)(O)[C@H](NC)[C@H]1O [NETILMICIN]
Hepatotoxicity (steatosis) [1]: 0 | Hepatotoxicity (moderate) [2]: 5 | Hepatotoxicity (cirrhosis) [3]: 0 | Hepatotoxicity (cytolytic) [4]: 0 | Hepatotoxicity (moderate) [5]: 29.4% | Hepatotoxicity (acute) [6]: 0 | Hepatotoxicity (choleostasis) [7]: 0 | Hepatotoxicity (benign tumour) [8]: 0 | Hepatotoxicity (acute) [9]: 0% | Hepatotoxicity (malignant tumour) [10]: 0 | Hepatotoxicity (severe hepatitis) [11]: 0 | Hepatotoxicity (granulomatous hepatitis) [12]: 0 | Hepatotoxicity (chronic liver disease) [13]: 0 | Hepatotoxicity (association with vascular disease) [14]: 0

O=C(OCC(COC(=O)c1cccnc1)(COC(=O)c1cccnc1)COC(=O)c1cccnc1)c1cccnc1 [NICERITROL]
Hepatotoxicity (steatosis) [1]: 0 | Hepatotoxicity (moderate) [2]: 1 | Hepatotoxicity (cirrhosis) [3]: 0 | Hepatotoxicity (cytolytic) [4]: 0 | Hepatotoxicity (moderate) [5]: 5% | Hepatotoxicity (acute) [6]: 0 | Hepatotoxicity (choleostasis) [7]: 0 | Hepatotoxicity (benign tumour) [8]: 0 | Hepatotoxicity (acute) [9]: 0% | Hepatotoxicity (malignant tumour) [10]: 0 | Hepatotoxicity (severe hepatitis) [11]: 0 | Hepatotoxicity (granulomatous hepatitis) [12]: 0 | Hepatotoxicity (chronic liver disease) [13]: 0 | Hepatotoxicity (association with vascular disease) [14]: 0

COC(=O)C1=C(C#N)NC(C)=C(C(=O)OC(C)C)C1c1cccc([N+](=O)[O-])c1 (stereo not drawn) [NILVADIPINE]
Hepatotoxicity (steatosis) [1]: 0 | Hepatotoxicity (moderate) [2]: 3 | Hepatotoxicity (cirrhosis) [3]: 0 | Hepatotoxicity (cytolytic) [4]: 0 | Hepatotoxicity (moderate) [5]: 6.3% | Hepatotoxicity (acute) [6]: 0 | Hepatotoxicity (choleostasis) [7]: 0 | Hepatotoxicity (benign tumour) [8]: 0 | Hepatotoxicity (acute) [9]: 0% | Hepatotoxicity (malignant tumour) [10]: 0 | Hepatotoxicity (severe hepatitis) [11]: 0 | Hepatotoxicity (granulomatous hepatitis) [12]: 0 | Hepatotoxicity (chronic liver disease) [13]: 0 | Hepatotoxicity (association with vascular disease) [14]: 0

Cc1ncc(CNC(=O)N(CCCl)N=O)c(N)n1 [NIMUSTINE]
Hepatotoxicity (steatosis) [1]: 0 | Hepatotoxicity (moderate) [2]: 2 | Hepatotoxicity (cirrhosis) [3]: 0 | Hepatotoxicity (cytolytic) [4]: 0 | Hepatotoxicity (moderate) [5]: 3.6% | Hepatotoxicity (acute) [6]: 0 | Hepatotoxicity (choleostasis) [7]: 0 | Hepatotoxicity (benign tumour) [8]: 0 | Hepatotoxicity (acute) [9]: 0% | Hepatotoxicity (malignant tumour) [10]: 0 | Hepatotoxicity (severe hepatitis) [11]: 0 | Hepatotoxicity (granulomatous hepatitis) [12]: 0 | Hepatotoxicity (chronic liver disease) [13]: 0 | Hepatotoxicity (association with vascular disease) [14]: 0

O=C1NCCN1c1ncc([N+](=O)[O-])s1 [NIRIDAZOLE]
Hepatotoxicity (steatosis) [1]: 0 | Hepatotoxicity (moderate) [2]: 2 | Hepatotoxicity (cirrhosis) [3]: 0 | Hepatotoxicity (cytolytic) [4]: 0 | Hepatotoxicity (moderate) [5]: 0% | Hepatotoxicity (acute) [6]: 0 | Hepatotoxicity (choleostasis) [7]: 0 | Hepatotoxicity (benign tumour) [8]: 0 | Hepatotoxicity (acute) [9]: 0% | Hepatotoxicity (malignant tumour) [10]: 0 | Hepatotoxicity (severe hepatitis) [11]: 0 | Hepatotoxicity (granulomatous hepatitis) [12]: 0 | Hepatotoxicity (chronic liver disease) [13]: 0 | Hepatotoxicity (association with vascular disease) [14]: 0

COC(=O)C1=C(C)NC(C)=C(C(=O)OCC(C)C)C1c1ccccc1[N+](=O)[O-] (stereo not drawn) [NISOLDIPINE]
Hepatotoxicity (steatosis) [1]: 0 | Hepatotoxicity (moderate) [2]: 1 | Hepatotoxicity (cirrhosis) [3]: 0 | Hepatotoxicity (cytolytic) [4]: 0 | Hepatotoxicity (moderate) [5]: 12.5% | Hepatotoxicity (acute) [6]: 0 | Hepatotoxicity (choleostasis) [7]: 0 | Hepatotoxicity (benign tumour) [8]: 0 | Hepatotoxicity (acute) [9]: 0% | Hepatotoxicity (malignant tumour) [10]: 0 | Hepatotoxicity (severe hepatitis) [11]: 0 | Hepatotoxicity (granulomatous hepatitis) [12]: 0 | Hepatotoxicity (chronic liver disease) [13]: 0 | Hepatotoxicity (association with vascular disease) [14]: 0
